The subject of one assay is A673 cells. Description: Inhibition of A673 cell proliferation (CyQUANT). The class given is cell-based. The settings on record: Homo sapiens, read-out: A673 IC50. The method, then:
Representative compounds of the invention were tested at different concentrations (from 4 μM to 126.4 pM; 0.5 log serial dilutions) for their ability to inhibit the proliferation of A673 cells. Known CDK inhibitors flavopiridol and triptolide were used as positive controls. Cells were grown in Dulbecco's Modified Eagle's Medium, +10% FBS+1 mM Sodium Pyruvate. The cells were cultured at 37° C. in a humidified chamber in the presence of 5% CO2. Proliferation assays were conducted over a 72 hour time period. CyQUANT® (Life Technologies, Chicago, Ill. USA) was used to assess the anti-proliferative effects of the compounds following manufacturer's directions and utilizing the reagents supplied with the CyQUANT® kit.

Another assay has as its target T1, CDK7 (Homo sapiens, UniProt P50613).
T1 construct: purchased Life Technologies (Grand Island, N.Y.), Adapta kinase assay service
Description: CDK7 kinase activity, Adapta kinase assay (Life Technologies). Note: concentrations from 10 µM down to 0.514 nM. It counts as biochemical. The settings on record: read-out: CDK7 Inhibition (IC50). On the procedure: Compounds of the invention were assayed for CDK7 activity at Life Technologies (Grand Island, N.Y.) using their commercially available Adapta® kinase assay services. […] Details of this assay, including substrates used, are available on the Life Technologies web site (http://www.lifetechnologies.com/us/en/home/life-science/drug-discovery/target-and-lead-identification-and-validation/kinasebiology/kinase-activity-assays.html).

[1] abbreviates: A673 cells, 72 hour proliferation, CyQUANT, 4 μM to 126.4 pM, 0.5 log serial dilutions.

Structures are written as SMILES. pIC50: −log10 of the molar value. Like-named read-outs stand apart in the source and are kept apart here.

The pIC50 is the IC50 on a negative log10 scale, so that one unit is a factor of ten.

T1 sequence (P50613 whole entry): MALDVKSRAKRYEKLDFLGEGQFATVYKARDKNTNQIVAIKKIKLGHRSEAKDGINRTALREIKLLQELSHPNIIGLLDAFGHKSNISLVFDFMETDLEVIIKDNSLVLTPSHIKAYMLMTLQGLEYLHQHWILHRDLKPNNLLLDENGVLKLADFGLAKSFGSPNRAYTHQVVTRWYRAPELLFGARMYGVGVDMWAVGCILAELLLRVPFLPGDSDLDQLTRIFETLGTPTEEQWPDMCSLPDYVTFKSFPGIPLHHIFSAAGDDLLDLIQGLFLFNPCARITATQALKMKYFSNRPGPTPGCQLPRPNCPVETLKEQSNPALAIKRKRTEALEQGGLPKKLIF
T1 sequence (P51946 whole entry partner): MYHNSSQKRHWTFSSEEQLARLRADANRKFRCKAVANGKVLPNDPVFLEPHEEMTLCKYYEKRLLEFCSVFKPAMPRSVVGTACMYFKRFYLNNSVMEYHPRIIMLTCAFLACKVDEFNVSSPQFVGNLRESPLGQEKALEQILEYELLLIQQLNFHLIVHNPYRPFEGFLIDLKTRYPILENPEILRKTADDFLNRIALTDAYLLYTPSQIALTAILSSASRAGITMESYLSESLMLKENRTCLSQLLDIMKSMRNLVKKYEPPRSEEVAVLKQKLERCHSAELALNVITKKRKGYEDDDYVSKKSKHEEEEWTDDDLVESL
T1 sequence (P51948 whole entry partner): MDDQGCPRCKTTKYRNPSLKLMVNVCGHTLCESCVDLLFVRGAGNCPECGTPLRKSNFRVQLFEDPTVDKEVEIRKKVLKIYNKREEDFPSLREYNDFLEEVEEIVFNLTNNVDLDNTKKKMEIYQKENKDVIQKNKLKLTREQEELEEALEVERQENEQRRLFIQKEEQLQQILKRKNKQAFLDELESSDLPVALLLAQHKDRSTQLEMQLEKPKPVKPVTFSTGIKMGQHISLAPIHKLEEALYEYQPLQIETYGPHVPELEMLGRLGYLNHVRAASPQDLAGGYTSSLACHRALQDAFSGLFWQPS

For `C=CC(=O)N1CCC(CN2CCC(C(=O)Nc3ncc(SCc4ncc(C(C)(C)C)o4)s3)CC2)CC1` [Compound 120, 1-((1-Acryloylpiperidin-4-yl)methyl)-N-(5-(((5-(tert-butyl)oxazol-2-yl)methyl)thio)thiazol-2-yl)piperidine-4-carboxamide], the pIC50 is greater than 6.30 in the assay on A673 cells (A673, 72 h) and less than 6.00 at CDK7. In the case of `C=CC(=O)Nc1ccc(C(=O)N2CCC(C(=O)Nc3ncc(SCc4ncc(C(C)(C)C)o4)s3)CC2)cc1` [Compound 122, 1-(4-Acrylamidobenzoyl)-N-(5-(((5-(tert-butyl)oxazol-2-yl)methyl)thio)thiazol-2-yl)piperidine-4-carboxamide], the pIC50 in the assay on A673 cells (setting [1]) was greater than 6.30. Take `C=CC(=O)Nc1cccc(C(=O)N2CCC(C(=O)Nc3ncc(SCc4ncc(C(C)(C)C)o4)s3)CC2)c1` [Compound 117, 1-(3-Acrylamidobenzoyl)-N-(5-(((5-(tert-butyl)oxazol-2-yl)methyl)thio)thiazol-2-yl)piperidine-4-carboxamide]: in the assay with A673 cells (setting [1]), the negative-log IC50 (pIC50) is greater than 6.30. For `C=CC(=O)N1CCC(C(=O)N2CCC(C(=O)Nc3ncc(SCc4ncc(C(C)(C)C)o4)s3)CC2)CC1` [Compound 123, 1-(1-Acryloylpiperidine-4-carbonyl)-N-(5-(((5-(tert-butyl)oxazol-2-yl)methyl)thio)thiazol-2-yl)piperidine-4-carboxamide], in the assay with A673 cells (setting [1]), the pIC50 was greater than 6.30. Regarding `C=CC(=O)N1CCCC(CN2CCC(C(=O)Nc3ncc(SCc4ncc(C(C)(C)C)o4)s3)CC2)C1` (centres unmarked) [Compound 125, 1-((1-Acryloylpiperidin-3-yl)methyl)-N-(5-(((5-(tert-butyl)oxazol-2-yl)methyl)thio)thiazol-2-yl)piperidine-4-carboxamide], the pIC50 in the assay on A673 cells (A673, 72 h) is greater than 6.30; on CDK7 it was 6.00 to 7.00. Take `CC(C)c1cnn2c(NCc3ccccc3NCc3ccc(NC(=O)/C=C/CN(C)C)cc3)nc(OC3CCN(C)CC3)nc12` [Compound 104, (E)-4-(dimethylamino)-N-(4-(((2-(((8-isopropyl-2-((1-methylpiperidin-4-yl)oxy)pyrazolo[1,5-a][1,3,5]triazin-4-yl)amino)methyl)phenyl)amino)methyl)phenyl)but-2-enamide]: the pIC50 is greater than 6.30 in the assay with A673 cells (setting [1]) and greater than 7.00 on CDK7. On to `CC(C)c1cnn2c(NCc3ccccc3NC(=O)c3ccc(NC(=O)/C=C/CN(C)C)cc3)nc(OC3CCN(C)CC3)nc12` [Compound 103, (E)-4-(4-(dimethylamino)but-2-enamido)-N-(2-(((8-isopropyl-2-((1-methylpiperidin-4-yl)oxy)pyrazolo[1,5-a][1,3,5]triazin-4-yl)amino)methyl)phenyl)benzamide], for which the negative-log IC50 (pIC50) in the assay on A673 cells (setting [1]) is 5.30 to 6.30; on CDK7 it was 6.00 to 7.00. For `C=CC(=O)Nc1cccc(CN2CCC(C(=O)Nc3ncc(SCc4ncc(C(C)(C)C)o4)s3)CC2)c1` [Compound 118, 1-(3-Acrylamidobenzyl)-N-(5-(((5-(tert-butyl)oxazol-2-yl)methyl)thio)thiazol-2-yl)piperidine-4-carboxamide], the pIC50 was greater than 6.30 in the assay on A673 cells (A673, 72 h) and 6.00 to 7.00 on CDK7. The like results for `C=CC(=O)Nc1cccc(C(C)N2CCC(C(=O)Nc3ncc(SCc4ncc(C(C)(C)C)o4)s3)CC2)c1` (centres unmarked) [Compound 121, 1-(1-(3-Acrylamidophenyl)ethyl)-N-(5-(((5-(tert-butyl)oxazol-2-yl)methyl)thio)thiazol-2-yl)piperidine-4-carboxamide] were, in that order, greater than 6.30 and 6.00 to 7.00. On to `CC(C)c1cnn2c(NC3CCN(C(=O)c4ccc(NC(=O)/C=C/CN(C)C)cc4)CC3)nc(OC3CCN(C)CC3)nc12` [Compound 102, (E)-4-(Dimethylamino)-N-(4-(4-((8-isopropyl-2-((1-methylpiperidin-4-yl)oxy)pyrazolo[1,5-a][1,3,5]triazin-4-yl)amino)piperidine-1-carbonyl)phenyl)but-2-enamide], for which the figures for the negative logarithm of the IC50 (pIC50) with A673 cells (setting [1]) and at CDK7 were 5.30 to 6.30 and less than 6.00, respectively. As for `CC(C)c1cnn2c(NCc3ccccc3N3CCN(C(=O)/C=C/CN(C)C)CC3)nc(OC3CCN(C)CC3)nc12` [Compound 105, (E)-4-(Dimethylamino)-1-(4-(2-(((8-isopropyl-2-((1-methylpiperidin-4-yl)oxy)pyrazolo[1,5-a][1,3,5]triazin-4-yl)amino)methyl)phenyl)piperazin-1-yl)but-2-en-1-one], the pIC50 is greater than 6.30 in the assay on A673 cells (setting [1]) and greater than 7.00 on CDK7. Consider `C=CC(=O)Nc1ccc(CN2CCC(C(=O)Nc3ncc(SCc4ncc(C(C)(C)C)o4)s3)CC2)cc1` [Compound 119, 1-(4-Acrylamidobenzyl)-N-(5-(((5-(tert-butyl)oxazol-2-yl)methyl)thio)thiazol-2-yl)piperidine-4-carboxamide], for which the pIC50 in the assay on A673 cells (A673, 72 h) is greater than 6.30; on CDK7 it was 6.00 to 7.00. Take `CN(C)C/C=C/C(=O)Nc1cccc(CN2CCC(C(=O)Nc3ncc(SCc4ncc(C(C)(C)C)o4)s3)CC2)c1` [Compound 127, (E)-N-(5-(((5-(tert-butyl)oxazol-2-yl)methyl)thio)thiazol-2-yl)-1-(3-(4-(dimethylamino)but-2-enamido)benzyl)piperidine-4-carboxamide]: the pIC50 with A673 cells (setting [1]) was greater than 6.30; at CDK7, 6.00 to 7.00.

These data come from US10336760B2, “Inhibitors of cyclin-dependent kinase 7 (CDK7)” (SYROS PHARMACEUTICALS, INC., priority 2014, dated 2019).
